# Target: T1, GST-PLK1 (Homo sapiens, UniProt P53350)
# T1 construct: Full-length, active GST-PLK1 is purified from Sf9 insect cells; made in house; host or cells: Sf9 insect cells
# Test: Biochemical Characterization Assay: GST-PLK1 kinase HTRF assay with GST-p53 substrate
# Details: full-length GST-PLK1, GST-p53 and ATP, 37° C. for 35 minutes, HTRF signal
# Method: Biochemical Characterization Assay
# Full-length, active GST-PLK1 is purified from Sf9 insect cells, and full-length GST-p53 is purified from E. coli. Anti-phospho p53 antibody is from Cell Signaling Technology. Europium-conjugated anti-rabbit antibody is from PerkinElmer Life and Analytical Sciences. APC-conjugated anti-GST antibody is from Prozyme.
# To assay compounds of the invention, two microliters of test compound (0.6 nM-4 mM) in DMSO or plain DMSO for control wells, 38 microliters of 20 mM HEPES pH 7, 50 mM NaCl, 10 mM MgCl2, 0.5 mM TCEP, 0.1 mM sodium orthovanadate, 0.1 mg/mL BSA, and 0.05% Triton X-100 (Kinase Assay Buffer) are added. […] Six microliters of GST-PLK1 (3 ug/mL) in Kinase Assay Buffer are then added and the solution incubated at 37° C. for 35 minutes. Six microliters of solution containing 43 mM EDTA to stop the reaction and a 1:600 dilution of anti-phospho-p53 antibody in 20 mM HEPES pH 7, 50 mM NaCl, and 0.5 mg/mL BSA (Antibody Binding Buffer) are added and the solution incubated at 37° C. for 30 minutes. […] The HTRF signal is read on an Envision reader from PerkinElmer Life and Analytical Sciences.
# T1 sequence (P53350 whole entry): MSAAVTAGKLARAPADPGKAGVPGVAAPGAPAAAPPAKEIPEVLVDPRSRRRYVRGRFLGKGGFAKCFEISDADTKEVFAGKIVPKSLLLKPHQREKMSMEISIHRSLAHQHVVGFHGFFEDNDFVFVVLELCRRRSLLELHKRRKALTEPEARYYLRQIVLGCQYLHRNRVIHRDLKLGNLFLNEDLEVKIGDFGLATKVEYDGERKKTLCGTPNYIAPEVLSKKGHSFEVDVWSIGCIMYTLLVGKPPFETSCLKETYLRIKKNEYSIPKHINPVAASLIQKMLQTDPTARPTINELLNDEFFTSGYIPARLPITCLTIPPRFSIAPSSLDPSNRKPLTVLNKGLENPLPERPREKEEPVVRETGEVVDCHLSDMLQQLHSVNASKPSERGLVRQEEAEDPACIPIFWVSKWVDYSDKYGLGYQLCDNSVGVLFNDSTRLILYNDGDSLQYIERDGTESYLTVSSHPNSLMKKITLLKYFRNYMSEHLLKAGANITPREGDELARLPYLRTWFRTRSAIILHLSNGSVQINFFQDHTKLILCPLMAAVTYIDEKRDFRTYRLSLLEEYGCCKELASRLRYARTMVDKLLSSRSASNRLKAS
row,Compound,IC50 [nM]
1,"COc1cc(C(=O)NC2CCN(C)CC2)ccc1Nc1ncc2c(n1)N(C1CCCCC1)CC(C)C(=O)N2 (racemic) [I-18, (rac)-4-(9-Cyclohexyl-7-methyl-6-oxo-6,7,8,9-tetrahydro-5H-pyrimido[4,5-b][1,4]diazepin-2-ylamino)-3-methoxy-N-(1-methyl-piperidin-4-yl)-benzamide]",500 to 5000
2,"COc1cc(C(=O)NC2CCN(C)CC2)ccc1Nc1ncc2c(n1)N(C1CCC1)CCC(=O)N2C [I-24, 4-(9-Cyclobutyl-5-methyl-6-oxo-6,7,8,9-tetrahydro-5H-pyrimido[4,5-b][1,4]diazepin-2-ylamino)-3-methoxy-N-(1-methyl-piperidin-4-yl)-benzamide]",< 500
3,"COc1cc(C(=O)NC2CCN(C)CC2)ccc1Nc1ncc2c(n1)N(C1CCC(C)C1)CCC(=O)N2C (racemic) [I-58, (rac)-3-Methoxy-4-[5-methyl-9-(3-methyl-cyclopentyl)-6-oxo-6,7,8,9-tetrahydro-5H-pyrimido[4,5-b][1,4]diazepin-2-ylamino]-N-(1-methyl-piperidin-4-yl)-benzamide]",< 500
4,"COc1ccc(C(=O)NCCCN(C)C)cc1Nc1ncc2c(n1)N(C1CCCC1)CC(C)C(=O)N2C (racemic) [I-73, (rac)-3-(9-Cyclopentyl-5,7-dimethyl-6-oxo-6,7,8,9-tetrahydro-5H-pyrimido[4,5-b][1,4]diazepin-2-ylamino)-N-(3-dimethylamino-propyl)-4-methoxy-benzamide]",< 500
5,"CC1CN(C2CCCC2)c2nc(Nc3cccc(C(=O)NCCCN(C)C)c3)ncc2N(C)C1=O (racemic) [I-70, (rac)-3-(9-Cyclopentyl-5,7-dimethyl-6-oxo-6,7,8,9-tetrahydro-5H-pyrimido[4,5-b][1,4]diazepin-2-ylamino)-N-(3-dimethylamino-propyl)-benzamide]",500 to 5000
6,"CN1CCC(NS(=O)(=O)c2ccc(Nc3ncc4c(n3)N(C3CCCC3)CC(C)(C)C(=O)N4C)cc2)CC1 [I-64, 4-(9-Cyclopentyl-5,7,7-trimethyl-6-oxo-6,7,8,9-tetrahydro-5H-pyrimido[4,5-b][1,4]diazepin-2-ylamino)-N-(1-methyl-piperidin-4-yl)-benzenesulfonamide]",500 to 5000
7,"CCCC1CN(C2CCCC2)c2nc(Nc3ccc(C(=O)NC4CCN(C)CC4)cc3OC)ncc2N(C)C1=O (racemic) [I-17, (rac)-4-(9-Cyclopentyl-5-methyl-6-oxo-7-propyl-6,7,8,9-tetrahydro-5H-pyrimido[4,5-b][1,4]diazepin-2-ylamino)-3-methoxy-N-(1-methyl-piperidin-4-yl)-benzamide]",500 to 5000
8,"COc1cc(C(=O)O)ccc1Nc1ncc2c(n1)N(C1CCCC1)C(C)CC(=O)N2C (racemic) [I-3, (rac)-4-(9-Cyclopentyl-5,8-dimethyl-6-oxo-6,7,8,9-tetrahydro-5H-pyrimido[4,5-b][1,4]diazepin-2-ylamino)-3-methoxy-benzoic acid]",500 to 5000
9,"COc1cc(C(=O)NC2CCN(C)CC2)ccc1Nc1ncc2c(n1)N(C1CCCC1)CCC(=O)N2 [I-21, 4-(9-Cyclopentyl-6-oxo-6,7,8,9-tetrahydro-5H-pyrimido[4,5-b][1,4]diazepin-2-ylamino)-3-methoxy-N-(1-methyl-piperidin-4-yl)-benzamide]",500 to 5000
10,"COc1cc(C(=O)NC2CCN(C)CC2)ccc1Nc1ncc2c(n1)N(C(C)C)CCC(=O)N2C [I-43, 4-(9-Isopropyl-5-methyl-6-oxo-6,7,8,9-tetrahydro-5H-pyrimido[4,5-b][1,4]diazepin-2-ylamino)-3-methoxy-N-(1-methyl-piperidin-4-yl)-benzamide]",< 500

# Other lines, results leading:
row,IC50 [nM],Compound
1,500 to 5000,"COc1cc(C(=O)NC2CCN(C)CC2)ccc1Nc1ncc2c(n1)N(Cc1ccccc1)CC(C)C(=O)N2C (racemic) [I-42, (rac)-4-(9-Benzyl-5,7-dimethyl-6-oxo-6,7,8,9-tetrahydro-5H-pyrimido[4,5-b][1,4]diazepin-2-ylamino)-3-methoxy-N-(1-methyl-piperidin-4-yl)-benzamide]"
2,500 to 5000,"COc1cc(C(=O)NC2CCN(C)CC2)ccc1Nc1ncc2c(n1)N(Cc1ccccc1)CCC(=O)N2C [I-22, 4-(9-Benzyl-5-methyl-6-oxo-6,7,8,9-tetrahydro-5H-pyrimido[4,5-b][1,4]diazepin-2-ylamino)-3-methoxy-N-(1-methyl-piperidin-4-yl)-benzamide]"
3,> 5000,"CC1CN(C2CCCC2)c2nc(Nc3ccc(C(=O)NC4CCCCC4)c(Cl)c3)ncc2N(C)C1=O (racemic) [I-85, (rac)-2-Chloro-N-cyclohexyl-4-(9-cyclopentyl-5,7-dimethyl-6-oxo-6,7,8,9-tetrahydro-5H-pyrimido[4,5-b][1,4]diazepin-2-ylamino)-benzamide]"
4,> 5000,"CC1CN(C2CCCC2)c2nc(Nc3cccc(C(=O)Nc4ccncc4)c3)ncc2N(C)C1=O (racemic) [I-92, (rac)-3-(9-Cyclopentyl-5,7-dimethyl-6-oxo-6,7,8,9-tetrahydro-5H-pyrimido[4,5-b][1,4]diazepin-2-ylamino)-N-pyridin-4-yl-benzamide]"
5,< 500,"COc1ccc(C(=O)NC2CCOCC2)cc1Nc1ncc2c(n1)N(C1CCCC1)CC(C)C(=O)N2C (racemic) [I-74, (rac)-3-(9-Cyclopentyl-5,7-dimethyl-6-oxo-6,7,8,9-tetrahydro-5H-pyrimido[4,5-b][1,4]diazepin-2-ylamino)-4-methoxy-N-(tetrahydro-pyran-4-yl)-benzamide]"
6,500 to 5000,"COc1cc(C(=O)NC2CCN(C)CC2)ccc1Nc1ncc2c(n1)N(c1ccccc1)CC(C)C(=O)N2C (racemic) [I-51, (rac)-4-(5,7-Dimethyl-6-oxo-9-phenyl-6,7,8,9-tetrahydro-5H-pyrimido[4,5-b][1,4]diazepin-2-ylamino)-3-methoxy-N-(1-methyl-piperidin-4-yl)-benzamide]"
7,500 to 5000,"COc1cc(C(=O)NC2CCN(C)CC2)ccc1Nc1ncc2c(n1)N(C1CCCCC1)CCC(=O)N2 [I-29, 4-(9-Cyclohexyl-6-oxo-6,7,8,9-tetrahydro-5H-pyrimido[4,5-b][1,4]diazepin-2-ylamino)-3-methoxy-N-(1-methyl-piperidin-4-yl)-benzamide]"
8,500 to 5000,"CC1CN(C2CCCC2)c2nc(Nc3ccc(O)c(NC(=O)c4cccnc4)c3)ncc2N(C)C1=O (racemic) [I-47, (rac)-N-[5-(9-Cyclopentyl-5,7-dimethyl-6-oxo-6,7,8,9-tetrahydro-5H-pyrimido[4,5-b][1,4]diazepin-2-ylamino)-2-hydroxy-phenyl]-nicotinamide]"
9,500 to 5000,"CC1CN(C2CCCC2)c2nc(Nc3cccc(C(=O)NC4CCN(C)CC4)c3)ncc2N(C)C1=O (racemic) [I-69, (rac)-3-(9-Cyclopentyl-5,7-dimethyl-6-oxo-6,7,8,9-tetrahydro-5H-pyrimido[4,5-b][1,4]diazepin-2-ylamino)-N-(1-methyl-piperidin-4-yl)-benzamide]"
10,< 500,"CC1CN(C2CCCC2)c2nc(Nc3cccc(C(=O)Nc4cccnc4)c3)ncc2N(C)C1=O (racemic) [I-72, (rac)-3-(9-Cyclopentyl-5,7-dimethyl-6-oxo-6,7,8,9-tetrahydro-5H-pyrimido[4,5-b][1,4]diazepin-2-ylamino)-N-pyridin-3-yl-benzamide]"
11,< 500,"CCC1CN(C2CCCC2)c2nc(Nc3ccc(C(=O)NC4CCN(C)CC4)cc3OC)ncc2N(C)C1=O (racemic) [I-13, (rac)-4-(9-Cyclopentyl-7-ethyl-5-methyl-6-oxo-6,7,8,9-tetrahydro-5H-pyrimido[4,5-b][1,4]diazepin-2-ylamino)-3-methoxy-N-(1-methyl-piperidin-4-yl)-benzamide]"
